Values joined by “and” are separate entries in the source; they are usually repeats but may differ in a detail not shown here. Equal values may be shown once.

The test system of one test is MCL. The note with it: cited from earlier work.
Test [1] deals with ruptured MCL of a surgical sympathectomy (SS) rat. Briefly: Local neuropeptide delivery to ruptured MCL of surgical sympathectomy (SS) rats: mechanical testing, histomorphology. The class given is in vivo. From the text: Surgical Procedure: Thirteen female Wistar rats (306 g to 339 g) were divided into two groups: surgical sympathectomy (SS) or sham control. All rats were anesthetized with isofluorane as described in Example 1. A transperitoneal approach was used. The lower abdomen was shaved and prepared for surgery. A skin incision approximately 25 mm long was made. Fascia and abdominal muscle were incised. Abdominal organs were displaced. With the aid of a dissecting microscope, fascia surrounding the deep muscle tissue was separated (with minimal disruption to the muscle tissue) to expose the post-ganglionic sympathetic nerves. The L1-4 nerves were isolated and transected (with removal of a 5 mm segment of the nerves) in the surgical sympathectomy group only. In both groups, the deep muscle tissue was returned to its initial position and abdominal organs were replaced. Abdominal muscles and skin were closed in two layers with a 3-0 or 4-0 continuous dexon suture. Rats from each group (n=4 SS; n=3 controls) then underwent a complete surgical rupture of the MCL to one knee. The contra-lateral knee underwent sham surgery. […] Two weeks post-surgery, rats were sacrificed using an overdose of pentobarbitone (150 mg/kg).
Local delivery of NPs and NP inhibitors is important to identify the specific roles of individual NPs on healing tissues. An animal model for the local delivery of NPs has been developed and is presented in this Example. Briefly, NP infused mini-osmotic pumps were implanted subcutaneously into the back of rats. A small catheter running from the pump to an intramuscular space above the MCL was secured to the rat.
To test whether autonomic NPs improve healing in SS-ruptured MCLs, three female Wistar rats (193 g to 204 g) were given VIP locally to the MCL. Vasoactive intestinal peptide (75 pg/μl) was infused into a mini-osmotic pump and was delivered to a ruptured MCL of a surgical sympathectomy (SS) rat (see surgical procedure above). Within minutes of surgical intervention, all rats recovered and had normal movement and behavior (grooming, feeding, etc.). […] The results are presented graphically in FIG. 6.
Animal Model and Surgery: Thirty-seven female Wistar rats (199-298 g) were divided into five groups. […] Rats that were designated to receive SP or CGRP underwent bilateral femoral nerve transection (see previous examples). Rats that were designated to receive NPY, VIP, or a combination of NPY and VIP underwent bilateral surgical sympathectomy. Following surgical nerve transection, each rat also underwent bilateral MCL rupture. Neuropeptides were then delivered ruptured MCLs unilaterally. Neuropeptide infused mini-osmotic pumps (Alzet Corp.) were implanted subcutaneously into the back of each rat. A small catheter running from the pump was run to an intramuscular space above the MCL and was secured. To ensure that neuropeptides are delivered directly to the MCL, rhodamine labeled SP was delivered via a catheter to the MCL (n=2 rats).
Within minutes of surgical intervention, all rats recovered and had normal movement and behavior (grooming, feeding, etc.). To test whether autonomic NPs improve healing in SS ruptured MCLs, seven rats were given VIP, seven rats were given NPY, and seven rats were given a combination of VIP and NPY. […]
Mechanical Testing: Mechanical testing was performed as described in the preceding examples. Briefly, animal hind limbs from all groups (n=4 for all groups) were disarticulated at the hip joint and stored at −80° C. until testing. On the day of testing, MCLs including intact femoral and tibial bone sections were excised for ex vivo testing. Ligament thickness and width was measured optically, and MCL area was estimated with elliptical geometry. For strain measurements, optical markers were placed onto the ligament tissue near the insertion sites. […]

In test [2] the test system is bovine articular chondrocytes. Briefly: Bovine chondrocytes glycosaminoglycan assay (DMMB). In kind it is cell-based. The conditions noted are these: NPY 50 ng/ml; Day 3 of treatment; individual wells. As for the experimental part: (§1) Cartilage chunks were then digested at 37° C. in DMEM containing 0.05% hyaluronidase for 30 minutes, followed by 0.05% collagenase digestion overnight. The digests were filtered through 40-micron nylon mesh and centrifuged at 600×g for 20 minutes. The cell pellets were then resuspended in DMEM and counted using a hemacytometer.
(§2) Cells were plated at 1×10^5 cells/well in 12-well plates (n=9) for proteoglycan assays and at 2×10^4 cells/well in 96-well plates (n=16) for proliferation assays. The culture volumes were 1 ml/well in 12-well plates and 100 μl/well in 96-well plates.
(§3) The plates were incubated at 37° C. in a humidified CO2 incubator for 3 days to allow the cells to recover from the harvesting procedure.
(§4) On Day 3 of treatment, 20 μl of CellTiter 96® AQueous One Solution Cell Proliferation Assay (Promega Corporation, Madison, Wis.) was added to each well of the 96-well cultures for 60 minutes, and cells in the 12-well plates were digested with 0.125 units of papain/well overnight. After the 60-minute incubation, the absorbance of the color generated by the cells in the 96-well plates was measured at wavelength 490 nm.
Following papain digestion of the cultures in 12-well plates, the amount of glycosaminoglycan (representative of proteoglycans) in each well was measured using the dimethylmethylene blue (DMMB) dye-binding assay. The results were statistically analyzed and plotted.

For test [3], the system named is bovine articular chondrocytes. Put plainly: Bovine chondrocytes proliferation assay (CellTiter 96 AQueous One). The class given is cell-based. The conditions noted are these: CGRP 100 pg/ml, NPY 50 ng/ml, SP 500 pg/ml, VIP 1 ng/ml. The method, then: as §1, §2, §3, §4
For test [4], the system named is Bovine nucleus pulposus cells. Briefly: Bovine nucleus pulposus (intervertebral disc) cell proliferation. In kind it is cell-based. The note with it: CGRP 10 ng/ml, NPY (mcg/ml, SP 5 mcg/ml); day 1, day 2, day 3. As for the experimental part:
Bovine calf spines and femoral condyles were obtained from a slaughterhouse and freshly transported to the laboratory. Nucleus pulposus tissue was carefully dissected, avoiding annular and endplate cartilage tissues, from each disc. Articular cartilage from femoral condyles was dissected in the same manner. […] Cells were harvested by overnight digestion with hyaluronidase and collagenase, followed by filtration. Cells were plated at a density of 1×10^5 cells/ml and incubated at 37° C. in 5% CO2 and 95% air in the presence of each neuropeptide or media only (control). At various time points in growth, cells were collected for proliferation and glycosaminoglycan (GAG) production assays. Varying concentrations of NPs were examined.
Well established colorimetric and luminescent assays (CellTiter 96® AQueous Non-radioactive Cell Proliferation and CellTiter-Glo® Luminescent Cell Viability Assays, Promega, Madison, Wis.) were used to quantify the effect of each NP on cell proliferation. In addition, corresponding cell cultures during growth were digested with papain to release glycosaminoglycans (GAGs). Dimethyl methylene blue (DMMB) colorimetric assays were used to quantify the amount of GAGs in each culture.
Multiple samples for test and control groups were performed simultaneously. Statistical analyses using one way analysis of variance (ANOVA) with large degrees of freedom (n=12 for GAG assays; n=24 for proliferation assays) were performed to establish the significance of differences between test groups and control groups for each day of growth in culture.
The effect of neuropeptides on intervertebral disc cell proliferation was examined in order to elucidate further the pathophysiology of degenerative disc disease. Bovine nucleus pulposus cells were incubated with the same neuropeptides.

The next test relates to healing MCL. Put plainly: Local neuropeptide delivery to normally innervated healing MCL: mechanical testing, histomorphology. In kind it is in vivo, rat. The method, then:
Animal Model and Surgery: Forty female Wistar rats (200-250 g) were divided into five groups.
All rats underwent bilateral MCL rupture. Neuropeptides were then delivered ruptured MCLs unilaterally. Neuropeptide infused mini-osmotic pumps (Alzet Corp.) were implanted subcutaneously into the back of each rat. A small catheter running from the pump was run to an intramuscular space above the MCL and was secured.
Mechanical Testing: Mechanical testing was performed as described in Chapter 2. Briefly, animal hind limbs from all groups (n=5 for all groups) were disarticulated at the hip joint and stored at −80° C. until testing. On the day of testing, MCLs including intact femoral and tibial bone sections were excised for ex vivo testing. Ligament thickness and width was measured optically, and MCL area was estimated with elliptical geometry. For strain measurements, optical markers were placed onto the ligament tissue near the insertion sites. A small preload of 0.1N was applied to the ligaments in order to obtain a uniform starting point. The ligaments were then preconditioned to 1% strain for 10 cycles. After preconditioning, ligaments were pulled to failure at a rate of 10% per second.
Tissue displacement was obtained using video dimensional analysis using equations (1) and (2) supra. The mechanical properties that were examined in this study were maximum force, ultimate stress, strain at failure, elastic modulus, and area. Statistical analysis was performed using paired ttests to compare each treated MCL to its contralateral control (alpha=0.05).
Ligaments were immediately fixed in formalin fixative for three days at room temperature. Specimens were embedded in paraffin, sectioned (6 μm), mounted on slides, and stained with hematoxylin and eosin (H&E).

[5] abbreviates: Example 7: normally innervated rats, bilateral MCL rupture, mini-osmotic pump (SP 75, CGRP 10, NPY 65, VIP 100 pg/100 μl), two weeks of healing.

For insulin-like growth factor-1, the “healed strength relative to intact ligament” value in the test on MCL (Provenzano et al., following 30 days of delivery) was 66%.

In the case of neuropeptide Y [NPY], the failure force was 12.2±0.9 N in test [1] (Example 6: SS rats, bilateral MCL rupture, mini-osmotic pump (NPY 65 pg/100 μl; VIP 100 pg/100 μl; or both), two weeks of healing) and 7.7±1.1 N with healing MCL (setting [5]). Besides, the “histomorphology (H&E) of healing MCL” value was “more aligned” in test [1] (SS rats, VIP or NPY, two weeks) and “less of an effect on tissue alignment” in the test on healing MCL (Example 7, two weeks of healing). For the same substance, the “healing response of MCLs relative to intact controls” value in test [1] (neuropathic ruptured MCL, two weeks of healing) is reported as 70%. Further, in test [2], the “Glycosaminoglycan Assay” value was 7.783 μg/dish and 9.327 μg/dish and 6.2383 μg/dish and 8.055 μg/dish and 7.964 μg/dish and 5.148 μg/dish and 5.784 μg/dish and 7.874 μg/dish and 8.328 μg/dish. Besides, the “proliferation of articular chondrocytes compared to controls (in words)” value in test [3] is “stimulate proliferation”. Also, the “disc cell proliferation compared to controls” value in test [4] is recorded as “stimulate disc cell proliferation”. The ultimate stress with healing MCL (setting [5]) was 5.6±2.2 MPa.

With platelet-derived growth factor [PDGF], the “healed MCL strength relative to intact ligament strength” value in the test with MCL (Woo et al., after 6 weeks of healing) is 50%.

Values taken from US20060247156A1, “Use of neuropeptides for ligament, cartilage, and bone healing” (priority 2004, published 2006).
